Molecular target: CPSF73 (Homo sapiens, UniProt Q9UKF6)
Experiment: gel-based end-point fluorescence nuclease assay with reconstituted U7 machinery
Format: biochemical

`O=C(O)CCc1cccc2c1B(O)OC2` [AN3661] gave an IC50 of 850 nM.
